Test results from publication PMC8426472 (Molecular Therapy. Methods & Clinical Development, 2021).

Columns and labels:
GS-GDNF vector = experiment: Striatal GDNF induction from AAV-5-GS-GDNF vector after Mfp application; type: in vivo, rat
[1] = cited from earlier work
ORM1F2 = conditions: cited from earlier work
[2] = cited from earlier work; remark: listed apart in the source
[3] = cited from earlier work; remark: listed apart in the source
ORM1F1 = conditions: cited from earlier work
[4] = Plasma Mfp levels in rats; type: in vivo, rat
[5] = Plasma Mfp levels in hAAG-expressing; type: in vivo, rat
[6] = test system: ORM2-derived AAG variants; conditions: cited from earlier work
[7] = Brain tissue Mfp levels in rats; type: in vivo, rat; conditions: 3 × 20 mg/kg i.p., t = 144 h
ORM1S = conditions: cited from earlier work
[8] = Brain Mfp levels in cynomolgus monkeys; type: in vivo, cynomolgus macaques (Macaca fascicularis); conditions: monkey #1 versus monkeys #2 and #3, repeated oral Rtv 60 mg/kg + Mfp 100 mg/kg
[9] = cited from earlier work; remark: listed apart in the source
[10] = Plasma Mfp levels in cynomolgus monkeys; type: in vivo, cynomolgus macaques (Macaca fascicularis)
[11] = cited from earlier work; remark: listed apart in the source

## CC(C)c1nc(CN(C)C(=O)N[C@H](C(=O)N[C@@H](Cc2ccccc2)C[C@H](O)[C@H](Cc2ccccc2)NC(=O)OCc2cncs2)C(C)C)cs1 [Rtv, ritonavir]
GS-GDNF vector; female rats, Rtv 30 mg/kg i.p. + 3 x 5 mg/kg Mfp i.p.
  boost of GDNF induction by Rtv, female rats: about 10 fold
GS-GDNF vector; male rats, Rtv 30 mg/kg i.p. + 3 x 5 mg/kg Mfp i.p.
  boost of GDNF induction by Rtv, male rats: about 40 fold
[1]
  metabolic effects: insulin resistance: moderate increase

## CC#C[C@]1(O)CC[C@H]2[C@@H]3CCC4=CC(=O)CCC4=C3[C@@H](c3ccc(N(C)C)cc3)C[C@@]21C [Mfp, mifepristone]
ORM1F2
  binding of Mfp by ORM1F2: only low affinity
[2]
  bioavailability in rats: 40%
  clearance in rats: 2.7 L/h/kg body weight
  plasma half-life (T1/2) in rats: 4 h
[3]
  bioavailability in monkeys: 15%
ORM1F1
  binding of Mfp by ORM1F1: high affinity
[4]; female, Wistar, rat, plasma, ip, AUC for plasma Mfp, − Rtv, female rats, 3 x 5 mg/kg Mfp i.p., without Rtv
  AUC: 8200 ng·h/mL
[4]; native rats, single oral dose 50 mg/kg
  drop of plasma Mfp levels at 48 h, native rats: over 80%
[4]; rats, 3 × 5 mg/kg Mfp i.p.
  peak plasma levels: about 150 ng/mL
  peak plasma levels, corresponding molar concentration: about 0.3 μM
[5]; 3 × 20 mg/kg Mfp i.p.
  plasma Mfp levels in hAAG-expressing vs native animals at 50 h and 72 h: significantly elevated
[5]; single oral dose 50 mg/kg
  plasma Mfp level at 48 h, hAAG-expressing rats: still at maximum level
  plasma Mfp level at 72 h, hAAG-expressing rats: about one-third of maximum levels
[6]
  binding of Mfp by ORM2-derived AAG variants: only weakly
[7]
  Mfp levels in brain tissue, native vs hAAG-expressing animals: equal
ORM1S
  binding of Mfp by ORM1S: high affinity
GS-GDNF vector; 3 × 5 mg/kg Mfp i.p., hAAG-expressing vs native rats
  effect of hAAG on GS-GDNF activation at lower dosage: no negative effect
GS-GDNF vector; 3 × 20 mg/kg Mfp i.p.
  striatal GDNF levels in hAAG-expressing vs native animals: similar
GS-GDNF vector; female and male rats, 3 × 20 mg/kg Mfp i.p.
  induced GDNF levels in aged (15 months) as compared to young (2 months) animals: 7–8 times
GS-GDNF vector; female rats, 3 x 5 mg/kg Mfp i.p., no Rtv
  striatal GDNF level, only Mfp, females: about 350 pg/mg
GS-GDNF vector; female rats, 3 x 20 mg/kg Mfp i.p.
  striatal GDNF level without Rtv co-application: about 2,000 pg/mg tissue
GS-GDNF vector; female rats, 3 x 20 mg/kg Mfp i.p., Rtv 30 mg/kg i.p. or orally
  striatal GDNF level after co-application of Rtv: about 4,000 pg/mg tissue
GS-GDNF vector; female rats, oral 3 x 50 mg/kg pure substance in EtOH, sesame oil or ASV
  GDNF levels obtained with different solvent/carrier: very similar
GS-GDNF vector; male and female rats, 3 x 5 mg/kg Mfp i.p. + Rtv 30 mg/kg i.p.
  striatal GDNF level, Mfp + Rtv: about 4,000 pg/mg tissue
GS-GDNF vector; male rats, 3 x 5 mg/kg Mfp i.p., no Rtv
  striatal GDNF level, only Mfp, males: about 100 pg/mg
[8]
  difference in brain Mfp levels after the same dosage: 6- to 7 fold
[9]
  bioavailability in humans: 40%
  clearance in human: 0.04 L/h/kg body weight
  plasma half-life (T1/2) in human: 30 h
[10]; male cynomolgus monkeys, single oral 50 mg/kg Mfp
  peak plasma Mfp level without Rtv: 55 ng/mL
[10]; male cynomolgus monkeys, single oral 50 mg/kg Mfp + 30 mg/kg Rtv
  peak plasma Mfp level with Rtv co-application: 150 ng/mL
[10]; male, cynomolgus monkey, plasma, po, 50 mg/kg
  AUC: 655 ng·h/mL
[10]; monkeys #2 and #3, oral Mfp 100 mg/kg + Rtv 60 mg/kg on 3 consecutive days
  plasma Mfp levels on all 3 days: exceeding 500 ng/mL
[11]
  solubility in water: very low
